The conditions of series [1]: for mean time to peak disliking / mean peak disliking effect (Emin), VAS: 480 mg oral tablet, after high-fat breakfast; for mean time to peak disliking: high responders; for mean peak disliking effect (Emin), VAS: high responders (six subjects). On the procedure: A total of 49 subjects were enrolled. […] As identified in the randomization schedule for each subject, subjects took each dose of study drug immediately following a standardized high-fat breakfast.
During the study, each subject completed a 100 point Visual Analog Scale (VAS) “Like/Dislike” Rating Scale at dosing and for up to 6 hours post-dosing where subjects were asked “Do you like or dislike the drug effect you are feeling now?”

For series [2] the following is noted: at pH 4.8; cited from earlier work.
For series [3] the following is noted: intestinal pH reduced from pH 8 to pH 5; cited from earlier work.
Where [4] appears, read: in the presence of food, VAS over 6 hours.

On to `O=C(O)c1cccnc1` [micronized niacin, niacin], for which, in series [1], the “mean time to peak disliking” value is 2.25 h and the “mean peak disliking effect (Emin), VAS” value is recorded as −28.7 mm. Further, the “high responder subjects (of six) with lower VAS scores than with standard niacin” value in series [1] (480 mg, fed, six high responders) is “five”. In series [1] (setting [4]), the “faster time to peak disliking than standard particle size niacin” value turned out to be 25% and the “more substantial disliking effect than standard particle size niacin” value came out at 89%.
As for `O=C(O)c1cccnc1` [standard niacin, niacin, reference compound], in series [1], the “mean time to peak disliking” value came out at 3.0 h and the “mean peak disliking effect (Emin), VAS” value is recorded as −15.3 mm.
As for `O=C(O)c1cccnc1` [niacin], the fraction non-ionized in series [2] was 50%. Besides, the “enhancement of intestinal uptake” value in series [3] is given as “approximately five fold”.

(Values after US20120039957A1 (ACURA PHARMACEUTICALS, INC., priority 2010, published 2012).)
